Experimental data published in patent US8273769B2, “Phenoxy acetic acid derivatives” (Merck Serono SA, priority 2009, dated 2012).
One block for each compound: values may come before it.

Target: T1, CRTH2 (Homo sapiens, UniProt Q9Y5Y4)
T1 sequence (Q9Y5Y4 1-395): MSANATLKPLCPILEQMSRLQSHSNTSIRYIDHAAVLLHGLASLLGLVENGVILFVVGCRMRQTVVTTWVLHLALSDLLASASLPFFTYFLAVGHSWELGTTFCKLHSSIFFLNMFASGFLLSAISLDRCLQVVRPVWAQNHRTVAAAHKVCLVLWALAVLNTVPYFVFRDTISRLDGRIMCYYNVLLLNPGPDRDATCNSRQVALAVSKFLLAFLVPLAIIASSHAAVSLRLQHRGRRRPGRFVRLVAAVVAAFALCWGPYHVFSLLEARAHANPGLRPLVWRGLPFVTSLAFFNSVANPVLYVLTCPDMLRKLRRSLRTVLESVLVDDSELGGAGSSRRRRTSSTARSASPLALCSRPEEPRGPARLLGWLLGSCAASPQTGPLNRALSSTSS
Assay: Radioligand binding Scintillation Proximity Assay ([3H]PGD2, hCRTH2-CHO cell membranes)
Design: host or cells: CHO cells
Settings: 1.5 nM [3H]PGD2, hCRTH2-CHO cell membranes, SPA
Method: Adherent CHO cells expressing hCRTH2 (Euroscreen, Belgium) were cultured in 225 cm^2 cell culture flasks (Corning, USA) in 30 ml of medium. After two rinses of phosphate buffered saline (PBS), cells were harvested in 10 ml of PBS containing 1 mM EDTA, centrifuged at 500×g for 5 min at 4° C. and frozen at −80° C. The pellet was re-suspended in 50 mM Tris-HCl, pH 7.4, 2 mM EDTA, 250 mM Sucrose, containing protease inhibitor cocktail tablets, (Complete EDTA-free, Roche, Germany) and incubated 30 min at 4° C. Cells were disrupted by nitrogen cavitation (Parr Instruments, USA) at 4° C. (800 p.s.i. for 30 min), and centrifuged at 500×g for 10 min at 4° C. Pellet containing nuclei and cellular debris was discarded and supernatant was centrifuged 60 min at 4° C. at 45000×g. Membrane pellet was re-suspended in storage buffer (10 mM HEPES/KOH pH 7.4, 1 mM EDTA, 250 mM sucrose, protease inhibitor cocktail tablets) using Dounce homogenization and frozen in liquid nitrogen, and stored at −80° C.
The inhibitory activity can be investigated by a radioligand binding Scintillation Proximity Assay (SPA) (Sawyer et al., Br. J. Pharmocol 2002, 137, 1163-72). The SPA radioligand binding assay was performed at room temperature in binding buffer (10 mM HEPES/KOH pH 7.4, 10 mM MnCl2, with protease inhibitor cocktail tablets), containing 1.5 nM [^3H]PGD2 (Perkin Elmer), 10-50 μg/ml of hCRTH2-CHO cell membrane protein and 2 mg/ml of Wheat-germ agglutinin Sintillation Proximity Assay beads (RPNQ0001, GE-Healthcare) in a final volume of 100 μl in 96 well plates (Corning, USA). Non-specific binding was determined in the presence of 10 μM PGD2 (Cayman, USA). Competing Compounds of Formula (I) were diluted in dimethylsulphoxide so that the total volume of dimethylsulfoxide was kept constant at 1% dimethylsulphoxide (Me2SO). Serial dilutions of 100 μM to 100 pM were prepared and 10 μl each of the compounds of Formula (I) stock solutions were added to the binding assay reagents and incubated for 90 min with agitation at room temperature. Binding activity was determined by using a 1450 Micro-beta scintillation counter (Wallac, UK).

SMILES: O=C(O)COc1ccc(Cl)cc1C#Cc1cccc(C(F)(F)F)c1 [Example 7, (4-chloro-2-{[3-(trifluoromethyl)phenyl]ethynyl}phenoxy)acetic acid]
IC50: 111 nM

SMILES: O=C(O)COc1ccc(Cl)cc1C#Cc1ccc(Cl)s1 [Example 10, {4-chloro-2-[(5-chloro-2-thienyl)ethynyl]phenoxy}acetic acid]
IC50: 267 nM

SMILES: CCCC(Oc1ccc(Cl)cc1C#Cc1cc(S(=O)(=O)CCC)ccc1C)C(=O)O (centres unmarked) [Example 171, 2-(4-chloro-2-{[2-methyl-5-(propylsulfonyl)phenyl]ethynyl}phenoxy)pentanoic acid]
IC50: 66 nM

SMILES: Cc1ncc(S(=O)(=O)N(C)C)cc1C#Cc1cc(Cl)ccc1OCC(=O)O [Example 139, [4-chloro-2-({5-[(dimethylamino)sulfonyl]-2-methylpyridin-3-yl}ethynyl)phenoxy]acetic acid]
IC50: 51 nM

SMILES: O=C(O)COc1ccc(Cl)cc1C#Cc1cccc(C(=O)N2CCOCC2)c1 [Example 126, (4-chloro-2-{[3-(morpholin-4-ylcarbonyl)phenyl]ethynyl}phenoxy)acetic acid]
IC50: 60 nM

SMILES: CC(C)S(=O)(=O)c1cc(C#Cc2cc(Cl)ccc2OCC(=O)O)ccc1C(=O)N(C)C [Example 164, (4-chloro-2-{[4-[(dimethylamino)carbonyl]-3-(isopropylsulfonyl)phenyl]ethynyl}phenoxy)acetic acid]
IC50: 75 nM

SMILES: CS(=O)(=O)c1ccc(O)c(C#Cc2cc(Cl)ccc2OCC(=O)O)c1 [Example 60, (4-chloro-2-{[2-hydroxy-5-(methylsulfonyl)phenyl]ethynyl}phenoxy)acetic acid]
IC50: 296 nM

SMILES: Cc1ccc(N(C)S(C)(=O)=O)cc1C#Cc1cc(Cl)ccc1OCC(=O)O [Example 138, [4-chloro-2-({2-methyl-5-[methyl(methylsulfonyl)amino]phenyl}ethynyl)phenoxy]acetic acid]
IC50: 150 nM

SMILES: CCCS(=O)(=O)c1ccc(F)c(C#Cc2cc(Cl)ccc2OC(C)(C)C(=O)O)c1 [Example 169, 2-(4-chloro-2-{[2-fluoro-5-(propylsulfonyl)phenyl]ethynyl}phenoxy)-2-methylpropanoic acid]
IC50: 287 nM

SMILES: Cc1ccc(S(=O)(=O)N(C)CCN(C)C)cc1C#Cc1cc(Cl)ccc1OCC(=O)O [Example 122, {4-chloro-2-[(5-{[[2-(dimethylamino)ethyl](methyl)amino]sulfonyl}-2-methylphenyl)ethynyl]phenoxy}acetic acid]
IC50: 452 nM

SMILES: O=C(O)COc1ccc(Cl)cc1C#Cc1ccc(F)cc1F [Example 8, {4-chloro-2-[(2,4-difluorophenyl)ethynyl]phenoxy}acetic acid]
IC50: 123 nM

SMILES: CCCS(=O)(=O)c1cccc(C#Cc2cc(-c3c(C)nn(C)c3C)ccc2OCC(=O)O)c1 [Example 136, [2-{[3-(Propylsulfonyl)phenyl]ethynyl}-4-(1,3,5-trimethyl-1H-pyrazol-4-yl)phenoxy]acetic acid]
IC50: 360 nM

SMILES: O=C(O)COc1ccc(Cl)cc1C#Cc1ccccc1F [Example 5, {4-chloro-2-[(2-fluorophenyl)ethynyl]phenoxy}acetic acid]
IC50: 56 nM

SMILES: O=C(O)COc1ccc(Cl)cc1C#Cc1ccc(NC(=O)c2ccc(C(F)(F)F)cc2)cc1 [Example 150, {4-chloro-2-[(4-{[4-(trifluoromethyl)benzoyl]amino}phenyl)ethynyl]phenoxy}acetic acid]
IC50: 267 nM

SMILES: CCCS(=O)(=O)c1cccc(C#Cc2nc(C)ccc2OCC(=O)O)c1 [Example 66, [(6-methyl-2-{[3-(propylsulfonyl)phenyl]ethynyl}pyridin-3-yl)oxy]acetic acid]
IC50: 193 nM

Compounds with a lower IC50, results first:

IC50: 40 nM
SMILES: O=C(O)COc1ccc(Cl)cc1C#Cc1cncc(S(=O)(=O)N2CC(F)(F)C2)c1 [Example 78, [4-chloro-2-({5-[(3,3-difluoroazetidin-1-yl)sulfonyl]pyridin-3-yl}ethynyl)phenoxy]acetic acid]

IC50: 36 nM
SMILES: O=C(O)COc1ccc(Cl)cc1C#Cc1cccc(S(=O)(=O)CCCO)c1 [Example 19, [4-chloro-2-({3-[(3-hydroxypropyl)sulfonyl]phenyl}ethynyl)phenoxy]acetic acid]

IC50: 35 nM
SMILES: CCCS(=O)(=O)c1ccc(C)c(C#Cc2cc(Cl)ccc2OC(CC)C(=O)O)c1 (centres unmarked) [Example 170, 2-(4-chloro-2-{[2-methyl-5-(propylsulfonyl)phenyl]ethynyl}phenoxy)butanoic acid]

IC50: 32 nM
SMILES: CCCCN(C)C(=O)c1ccc(C#Cc2cc(Cl)ccc2OCC(=O)O)cc1S(=O)(=O)C(C)C [Example 163, (2-{[4-{[butyl(methyl)amino]carbonyl}-3-(isopropylsulfonyl)phenyl]ethynyl}-4-chlorophenoxy)acetic acid]

IC50: 32 nM
SMILES: O=C(O)COc1ccc(Cl)cc1C#Cc1ccc2c(c1)S(=O)(=O)C=C2 [Example 156, {4-chloro-2-[(1,1-dioxido-1-benzothien-6-yl)ethynyl]phenoxy}acetic acid]

IC50: 32 nM
SMILES: CC1(O)c2ccc(C#Cc3cc(Cl)ccc3OCC(=O)O)cc2S(=O)(=O)C1(C)C (centres unmarked) [Example 160, {4-chloro-2-[(3-hydroxy-2,2,3-trimethyl-1,1-dioxido-2,3-dihydro-1-benzothien-6-yl)ethynyl]phenoxy}acetic acid]

IC50: 28 nM
SMILES: O=C(O)COc1ccc(Cl)cc1C#Cc1ccc(NC(=O)c2ccccc2)cc1 [Example 151, (2-{[4-(benzoylamino)phenyl]ethynyl}-4-chlorophenoxy)acetic acid]

IC50: 25 nM
SMILES: Cc1ccc(S(N)(=O)=O)cc1C#Cc1cc(Cl)ccc1OCC(=O)O [Example 120, (2-{[5-(aminosulfonyl)-2-methylphenyl]ethynyl}-4-chlorophenoxy)acetic acid]

IC50: 19 nM
SMILES: CS(=O)(=O)c1cc(C#Cc2cc(Cl)ccc2OCC(=O)O)ccc1-c1cccc(Cl)c1 [Example 145, (4-chloro-2-{[3′-chloro-2-(methylsulfonyl)biphenyl-4-yl]ethynyl}phenoxy)acetic acid]

IC50: 11 nM
SMILES: CCC[S+]([O-])c1ccc(C)c(C#Cc2cc(Cl)ccc2OCC(=O)O)c1 (centres unmarked) [Example 149, (4-chloro-2-{[2-methyl-5-(propylsulfinyl)phenyl]ethynyl}phenoxy)acetic acid]

IC50: 10 nM
SMILES: CCCS(=O)(=O)c1ccc(F)c(C#Cc2cc(Cl)cnc2OCC(=O)O)c1 [Example 129, [(5-chloro-3-{[2-fluoro-5-(propylsulfonyl)phenyl]ethynyl}pyridin-2-yl)oxy]acetic acid]

IC50: 8 nM
SMILES: COc1ccc(-c2ccc(C#Cc3cc(Cl)ccc3OCC(=O)O)cc2S(C)(=O)=O)cc1 [Example 141, (4-chloro-2-{[4′-methoxy-2-(methylsulfonyl)biphenyl-4-yl]ethynyl}phenoxy)acetic acid]

IC50: 6 nM
SMILES: CCNS(=O)(=O)c1ccc(C)c(C#Cc2cc(Cl)ccc2OCC(=O)O)c1 [Example 16, [4-chloro-2-({5-[(ethylamino)sulfonyl]-2-methylphenyl}ethynyl)phenoxy]acetic acid]

IC50: 5 nM
SMILES: CCCN(C)S(=O)(=O)c1ccc(C)c(C#Cc2cc(Cl)ccc2OCC(=O)O)c1 [Example 115, {4-chloro-2-[(2-methyl-5-{[methyl(propyl)amino]sulfonyl}phenyl)ethynyl]phenoxy}acetic acid]

IC50: 5 nM
SMILES: Cc1ccc(S(=O)(=O)N2CCC2)cc1C#Cc1cc(Cl)ccc1OCC(=O)O [Example 123, (2-{[5-(azetidin-1-ylsulfonyl)-2-methylphenyl]ethynyl}-4-chlorophenoxy)acetic acid]

IC50: 5 nM
SMILES: Cc1ccc(S(=O)(=O)N2CCOCC2)cc1C#Cc1cc(Cl)ccc1OCC(=O)O [Example 82, (4-chloro-2-{[2-methyl-5-(morpholin-4-ylsulfonyl)phenyl]ethynyl}phenoxy)acetic acid]

IC50: 1 nM
SMILES: CCCS(=O)(=O)c1cc(C#Cc2cc(Cl)ccc2OCC(=O)O)c(C)cc1NC(C)=O [Example 153, (2-{[4-(acetylamino)-2-methyl-5-(propylsulfonyl)phenyl]ethynyl}-4-chlorophenoxy)acetic acid]
